Test results published in the supplement of paper PMC11061612.

Legend:
Assay in all cases: combination Emax (second highest fraction inhibited in the dose matrix, 72 h); higher = more inhibition; extreme values may be limits of the assay
[1] = tested on: LXF-289 (Lung Adenocarcinoma)
Method in brief: (§1)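 Cell lines in DMEM/F12 or RPMI with 10% FBS were plated in 1536-well plates, held 24 hours at 37°C, 5% CO2, then given two-drug dose matrices for 72 hours (DMSO typically 0.2%). Viability was read by CellTiter-Glo 2.0 luminescence and scaled as inhibition from 0 (vehicle wells) to 1 (blank wells). Combination Emax is the second-highest inhibition in the matrix; Bliss excess is observed combination effect minus expected EA + EB − EA·EB, EA and EB being single-agent effects.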

SF268 (Low Grade Glioma) = tested on: SF268 (Low Grade Glioma)
Method in brief: as §1

[2] = tested on: GP5d (Colorectal Carcinoma)
Method in brief: as §1

[3] = tested on: RERF-GC-1B (Gastric Carcinoma)
Method in brief: as §1

[4] = tested on: RCM-1 (Colorectal Carcinoma)
Method in brief: as §1

[5] = tested on: FADU (Head and Neck Carcinoma)
Method in brief: as §1

[6] = tested on: KE-37 (T-Lymphoblastic Leukemia)
Method in brief: as §1

LN-229 (Glioblastoma) = tested on: LN-229 (Glioblastoma)
Method in brief: as §1

[7] = tested on: HCT-15 (Colorectal Carcinoma)
Method in brief: as §1

[8] = tested on: VAL (B-Cell Non-Hodgkin's Lymphoma)
Method in brief: as §1

[9] = tested on: L-1236 (Hodgkin's Lymphoma)
Method in brief: as §1

[10] = tested on: NCI-H446 (Small Cell Lung Carcinoma)
Method in brief: as §1

[11] = tested on: HSC-39 (Gastric Carcinoma)
Method in brief: as §1

[12] = tested on: PC-3_[JPC-3] (Lung Adenocarcinoma)
Method in brief: as §1

[13] = tested on: HEC-1 (Endometrial Carcinoma)
Method in brief: as §1

[14] = tested on: NCI-H2342 (Lung Adenocarcinoma)
Method in brief: as §1

[15] = tested on: PSN1 (Pancreatic Carcinoma)
Method in brief: as §1

[16] = tested on: SK-PN-DW (Other Solid Carcinomas)
Method in brief: as §1

[17] = tested on: OPM-2 (Plasma Cell Myeloma)
Method in brief: as §1

[18] = tested on: LB996-RCC (Kidney Carcinoma)
Method in brief: as §1

Row | Compound | combination Emax [1] | combination Emax (SF268 (Low Grade Glioma)) | combination Emax [2] | combination Emax [3] | combination Emax [4] | combination Emax [5] | combination Emax [6] | combination Emax (LN-229 (Glioblastoma)) | combination Emax [7] | combination Emax [8] | combination Emax [9] | combination Emax [10] | combination Emax [11] | combination Emax [12] | combination Emax [13] | combination Emax [14] | combination Emax [15] | combination Emax [16] | combination Emax [17] | combination Emax [18]
1 | CN(C)CCCOc1ccc(-c2ccc3ncc4c(c3c2)n(C2CCOCC2)c(=O)n4C)cn1 [AZD0156] + C=CCn1c(=O)c2cnc(Nc3ccc(N4CCN(C)CC4)cc3)nc2n1-c1cccc(C(C)(C)O)n1 [AZD1775] (first compound max 1 µM, partner max 1 µM) | 0.264 | 0.225 | 0.664 | 0.772 | 0.518 | 0.617 | 1 | 0.314 | 0.726 | 0.846 | 0.755 | 0.801 | 0.946 | 0.393 | 0.0682 | 0.162 | 0.462 | 0.871 | 0.805 | 0.801
2 | CN(C)CCCOc1ccc(-c2ccc3ncc4c(c3c2)n(C2CCOCC2)c(=O)n4C)cn1 [AZD0156] + CCN(CCO)CCCOc1ccc2c(Nc3cc(CC(=O)Nc4cccc(F)c4)[nH]n3)ncnc2c1 [AZD2811] (first compound max 1 µM, 7x7, partner max 1 µM) | 0.507 | 0.142 | 0.456 | 0.423 | 0.161 | 0.228 | 1 | 0.123 | 0.317 | 0.801 | 0.215 | 0.838 | 0.935 | 0.101 | 0.0528 | 0.145 | 0.362 | 0.605 | 0.436 | 0.362
3 | CN(C)CCCOc1ccc(-c2ccc3ncc4c(c3c2)n(C2CCOCC2)c(=O)n4C)cn1 [AZD0156] + C[C@@H]1COCCN1C2=NC(=NC(=C2)C3(CC3)[S@](=N)(=O)C)C4=C5C=CNC5=NC=C4 [AZD6738] (first compound max 1 µM, 7x7, partner max 10 µM) | 0.573 | 0.497 | 0.883 | 0.491 | 0.864 | 0.758 | 1 | 0.54 | 0.915 | 0.911 | 0.634 | 0.779 | 1 | 0.329 | 0.363 | 0.166 | 0.504 | 0.928 | 0.776 | 0.581
4 | CN(C)CCCOc1ccc(-c2ccc3ncc4c(c3c2)n(C2CCOCC2)c(=O)n4C)cn1 [AZD0156] + O=C(c1cc(Cc2n[nH]c(=O)c3ccccc23)ccc1F)N1CCN(C(=O)C2CC2)CC1 [Olaparib] (first compound max 3 µM, partner max 3 µM) | 0.4 | 0.21 | 0.297 | 0.317 | 0.287 | 0.258 | 0.415 | 0.107 | 0.378 | 0.542 | 0.326 | 0.362 | 0.413 | 0.181 | 0.139 | 0.0678 | 0.228 | 0.289 | 0.231 | 0.38
5 | C=CCn1c(=O)c2cnc(Nc3ccc(N4CCN(C)CC4)cc3)nc2n1-c1cccc(C(C)(C)O)n1 [AZD1775] + C1CN(CCC1(C(=O)N[C@@H](CCO)C2=CC=C(C=C2)Cl)N)C3=NC=NC4=C3C=CN4 [Capivasertib] (first compound max 3 µM, partner max 3 µM) | 0.836 | 0.456 | 0.973 |  | 0.628 | 0.644 | 1 | 0.419 | 0.896 | 0.841 | 0.876 | 0.972 | 0.958 | 0.577 | 0.615 | 0.282 | 0.763 | 0.783 | 0.967 | 0.783
6 | C=CCn1c(=O)c2cnc(Nc3ccc(N4CCN(C)CC4)cc3)nc2n1-c1cccc(C(C)(C)O)n1 [AZD1775] + C[C@@H]1COCCN1C2=NC(=NC(=C2)C3(CC3)[S@](=N)(=O)C)C4=C5C=CNC5=NC=C4 [AZD6738] (first compound max 1 µM, partner max 10 µM) | 0.771 | 0.526 | 0.927 | 0.851 | 0.852 | 0.875 | 1 | 0.59 | 0.933 | 0.881 | 0.782 | 0.951 | 1 | 0.537 | 0.638 | 0.426 | 0.764 | 0.955 | 0.893 | 0.84
7 | C=CCn1c(=O)c2cnc(Nc3ccc(N4CCN(C)CC4)cc3)nc2n1-c1cccc(C(C)(C)O)n1 [AZD1775] + O=C(c1cc(Cc2n[nH]c(=O)c3ccccc23)ccc1F)N1CCN(C(=O)C2CC2)CC1 [Olaparib] (first compound max 1 µM, partner max 10 µM) | 0.355 | 0.251 | 0.713 | 0.693 | 0.518 | 0.591 | 1 | 0.258 | 0.443 | 0.816 | 0.746 | 0.778 | 0.988 | 0.458 | 0.119 | 0.229 | 0.478 | 0.913 | 0.864 | 0.845
8 | CCN(CCO)CCCOc1ccc2c(Nc3cc(CC(=O)Nc4cccc(F)c4)[nH]n3)ncnc2c1 [AZD2811] + C=CCn1c(=O)c2cnc(Nc3ccc(N4CCN(C)CC4)cc3)nc2n1-c1cccc(C(C)(C)O)n1 [AZD1775] (first compound max 1 µM, partner max 1 µM) | 0.573 | 0.245 | 0.735 | 0.816 | 0.461 | 0.608 | 1 | 0.218 | 0.743 | 0.844 | 0.74 | 0.87 | 0.985 | 0.413 | 0.141 | 0.262 | 0.401 | 0.899 | 0.809 | 0.842
9 | COc1nnc2ccc(N3CCC(c4ccc(OCCN5CCN(C)C(=O)[C@H]5C)cc4)CC3)nn12 [AZD5153] + CN(CC[C@H](CSC1=CC=CC=C1)NC2=C(C=C(C=C2)S(=O)(=O)NC(=O)C3=CC=C(C=C3)N4CCC(CC4)[C@H](C5=CC=CC=C5C6=CC=C(C=C6)Cl)O)S(=O)(=O)C(F)(F)F)CCO [AZD4320] (first compound max 1 µM, 7x7, partner max 1 µM) | 0.667 | 0.552 | 0.727 | 0.813 |  | 0.45 | 1 | 0.335 | 0.81 |  |  | 0.984 |  |  | 0.983 |  |  |  |  | 0.539
10 | Cc1nc(Nc2ncc(C(=O)Nc3c(C)cccc3Cl)s2)cc(N2CCN(CCO)CC2)n1 [Dasatinib] + CC(=O)Nc1cccc(-n2c(=O)n(C3CC3)c(=O)c3c(Nc4ccc(I)cc4F)n(C)c(=O)c(C)c32)c1 [Trametinib] (first compound max 2 µM, 7x7, partner max 1 µM) | 0.986 |  | 0.697 | 1 | 0.798 | 0.515 | 0.32 | 0.548 | 0.71 | 0.691 | 0.243 | 0.444 | 0.498 | 0.738 | 0.295 | 0.232 | 0.942 | 0.141 | 0.801 | 0.893
11 | CS(=O)(=O)CCNCc1ccc(-c2ccc3ncnc(Nc4ccc(OCc5cccc(F)c5)c(Cl)c4)c3c2)o1 [Lapatinib] + NC1(c2ccc(-c3nc4ccn5c(=O)[nH]nc5c4cc3-c3ccccc3)cc2)CCC1 [MK-2206] (first compound max 10 µM, 7x7, partner max 10 µM) |  |  |  | 0.943 | 0.514 |  |  | 0.207 |  | 0.898 | 0.888 | 0.962 | 0.933 | 0.927 |  | 0.196 | 0.562 | 0.933 | 0.972 | 
12 | CCc1c2c(nc3ccc(O)cc13)-c1cc3c(c(=O)n1C2)COC(=O)[C@]3(O)CC [SN-38] + O=C(c1cc(Cc2n[nH]c(=O)c3ccccc23)ccc1F)N1CCN(C(=O)C2CC2)CC1 [Olaparib] (first compound max 0.3 µM, 7x7, partner max 10 µM) |  |  | 0.704 |  | 0.809 | 0.996 | 1 |  | 0.852 | 0.994 | 0.87 | 0.905 | 0.887 | 0.825 | 0.761 | 0.236 | 0.753 | 0.909 | 0.734 | 0.854
13 | C[C@@H](c1ccc2nccn2c1)n1nnc2ncc(-c3cnn(C)c3)nc21 [Savolitinib] + CN(CC[C@H](CSC1=CC=CC=C1)NC2=C(C=C(C=C2)S(=O)(=O)NC(=O)C3=CC=C(C=C3)N4CCC(CC4)[C@H](C5=CC=CC=C5C6=CC=C(C=C6)Cl)O)S(=O)(=O)C(F)(F)F)CCO [AZD4320] (first compound max 1 µM, 7x7, partner max 1 µM) | 0.188 | 0.172 | 0.29 | 0.367 |  | 0.221 | 1 | 0.187 | 0.132 |  |  | 0.694 |  |  | 0.423 |  |  |  |  | 0.19
